The values that follow come from ChEMBL document CHEMBL1201862, “PubChem BioAssay data set” (2004).

Test systems include HCT-15; 786-0; Malme-3M; LOX IMVI; CCRF-CEM; NCI/ADR-RES; RPMI-8226; BT-549; A549; SK-MEL-5; U-251; IGROV-1; NCI-H226; COLO 205; MOLT-4; DU-145; MDA-MB-435; A498; SNB-19; MDA-N.
Holding throughout (assay): DTP human tumour cell line panel, 48 h

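All cell lines were grown in 96-well plates and treated with compound for 48 hours. GI50 is the concentration that inhibits growth by half.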 Active and inactive are the calls of the source. Cut-off read from the data, not from the text of the source: active = GI50 up to about 1.1 µM and inactive = higher.

In the case of `O=[N+]([O-])c1cccnc1-n1cnc2ccccc21`, the GI50 (as a rule, the concentration giving 50% growth inhibition) was above 100 µM in the assay on HCT-15; > 100 µM (inactive) in the assay with 786-0; > 100 µM (inactive) in the assay on Malme-3M; > 100 µM (inactive) in the assay on LOX IMVI; > 100 µM (inactive) in the assay with CCRF-CEM; > 100 µM (inactive) with NCI/ADR-RES. The GI50 in the assay with RPMI-8226, with BT-549, in the assay with A549, in the assay on SK-MEL-5, with U-251 and with IGROV-1 was > 100 µM (inactive) each time. Also, the GI50 in the assay with NCI-H226, with COLO 205, in the assay with MOLT-4, with DU-145, in the assay on MDA-MB-435 and in the assay with A498 was > 100 µM (inactive) in each case.
With `O=C(Cn1c(C(=O)c2ccccc2)nc2ccccc21)c1ccccc1`, the GI50 in the assay with HCT-15 is above 100 µM; in the assay on 786-0, > 63.8 µM (inactive); with Malme-3M, > 96.2 µM (inactive); in the assay on LOX IMVI it was > 100 µM (inactive); with CCRF-CEM, > 100 µM (inactive); in the assay with NCI/ADR-RES it was > 100 µM (inactive). Further, the GI50 with RPMI-8226 is > 100 µM (inactive); with BT-549, > 100 µM (inactive); with A549, > 96.4 µM (inactive); in the assay on SK-MEL-5, > 100 µM (inactive); with U-251 it was > 77.1 µM (inactive); in the assay on SNB-19, > 100 µM (inactive). Also, the GI50 with IGROV-1 was > 31.6 µM (inactive); with NCI-H226, > 100 µM (inactive); with COLO 205, > 100 µM (inactive); in the assay on MOLT-4 it was > 100 µM (inactive); with DU-145, > 100 µM (inactive); with MDA-MB-435, 3.72 µM (inactive). In the assay with A498, the GI50 is > 100 µM (inactive).
Regarding `COC(=O)C1=C(OC(=O)/C(=C/c2ccc(Cl)cc2)c2ccc(Cl)cc2)C(C(=O)OC)[C@@]2(O)[C@@H](C(=O)OC)[C@H](C)C[C@@H]1[C@@H]2C(=O)OC` (stereo not given in full), the GI50 was above 81.3 µM in the assay on HCT-15; > 100 µM (inactive) in the assay on 786-0; 29 µM (inactive) with Malme-3M; > 100 µM (inactive) with LOX IMVI; > 37.2 µM (inactive) in the assay with CCRF-CEM; 17.2 µM (inactive) with NCI/ADR-RES. For the same compound, the GI50 in the assay with RPMI-8226 was 18 µM (inactive); in the assay on A549 it was 11.5 µM (inactive); in the assay with SK-MEL-5 it was > 100 µM (inactive); in the assay with U-251 it was 17.8 µM (inactive); in the assay with SNB-19, 16.4 µM (inactive); in the assay on MDA-N it was > 100 µM (inactive). The GI50 was 27.6 µM (inactive) in the assay with IGROV-1; > 100 µM (inactive) with NCI-H226; > 76.4 µM (inactive) with COLO 205; 0.328 µM (active) in the assay on MOLT-4; > 100 µM (inactive) with DU-145; > 100 µM (inactive) in the assay with MDA-MB-435. The GI50 in the assay with A498 is > 100 µM (inactive).
For the compound `CCCCCCCCCc1cc(-c2ccc(C=O)s2)sc1-c1ccc(C=O)s1`, the GI50 in the assay on HCT-15 is 24.8 µM; in the assay with 786-0, 28.7 µM (inactive); with Malme-3M, 40.5 µM (inactive); with LOX IMVI, 11.5 µM (inactive); with CCRF-CEM, 2.23 µM (inactive); in the assay with NCI/ADR-RES it was 19.6 µM (inactive). Moreover, the GI50 with RPMI-8226 was 11.4 µM (inactive); in the assay with BT-549 it was 35.3 µM (inactive); in the assay with A549 it was 53.1 µM (inactive); in the assay with SK-MEL-5 it was 15.7 µM (inactive); with U-251, 10 µM (inactive); in the assay with SNB-19, 22.6 µM (inactive). Besides, the GI50 with IGROV-1 is 21 µM (inactive); with NCI-H226, 3.04 µM (inactive); with COLO 205 it was 20 µM (inactive); with MOLT-4 it was 1.12 µM (inactive); with DU-145, 26.7 µM (inactive); in the assay with MDA-MB-435 it was 22.6 µM (inactive). Moreover, the GI50 with A498 is 1.6 µM (inactive).
As to `CCN(CC)CC(=O)Nc1c(C(N)=O)nnn1Cc1cc(Cl)c(C(=O)c2ccc(Cl)cc2)c(Cl)c1`, the GI50 in the assay with HCT-15 was 16.6 µM; with 786-0, 16.1 µM (inactive); with LOX IMVI it was 16.1 µM (inactive); in the assay on CCRF-CEM, 18 µM (inactive); in the assay with NCI/ADR-RES it was 15.8 µM (inactive); with RPMI-8226 it was 22.3 µM (inactive). In addition, the GI50 was 17.8 µM (inactive) in the assay on BT-549; 22.3 µM (inactive) with A549; 16.4 µM (inactive) in the assay with SK-MEL-5; 19.5 µM (inactive) in the assay on U-251; 34.9 µM (inactive) in the assay on SNB-19; 21.4 µM (inactive) in the assay on IGROV-1. Moreover, the GI50 is 14.4 µM (inactive) with NCI-H226; 16.9 µM (inactive) with COLO 205; 16.3 µM (inactive) in the assay on MOLT-4; 30.8 µM (inactive) in the assay with DU-145; 18.5 µM (inactive) in the assay on MDA-MB-435; 37.9 µM (inactive) in the assay with A498.
For the compound `Cn1c(=O)oc2cc(Br)ccc21`, the GI50 was above 100 µM with HCT-15; > 100 µM (inactive) in the assay on 786-0; > 100 µM (inactive) with Malme-3M; > 100 µM (inactive) with LOX IMVI; > 100 µM (inactive) with CCRF-CEM; > 100 µM (inactive) in the assay on NCI/ADR-RES. For the same compound, the GI50 in the assay on RPMI-8226, in the assay with A549, with SK-MEL-5, with SNB-19, in the assay on MDA-N and in the assay with IGROV-1 was > 100 µM (inactive) throughout. Further, the GI50 with NCI-H226, in the assay with COLO 205, in the assay on MOLT-4, with DU-145, with MDA-MB-435 and in the assay with A498 was > 100 µM (inactive) each time.
In the case of `CC1(C)O[C@H](C(=O)O)[C@@H](C(=O)O)O1`, the GI50 in the assay on HCT-15 is above 100 µM; in the assay with 786-0 it was > 100 µM (inactive); in the assay with Malme-3M it was > 100 µM (inactive); in the assay on LOX IMVI, > 100 µM (inactive); with CCRF-CEM it was > 100 µM (inactive); in the assay with NCI/ADR-RES, > 100 µM (inactive). The GI50 with RPMI-8226, with A549, with SK-MEL-5, in the assay on U-251, in the assay with SNB-19 and in the assay on MDA-N was > 100 µM (inactive) throughout. Further, the GI50 in the assay with IGROV-1, in the assay on NCI-H226, in the assay with COLO 205, with MOLT-4, with DU-145 and in the assay with MDA-MB-435 was > 100 µM (inactive) throughout. The GI50 in the assay with A498 is > 100 µM (inactive).
As to `[N-]=[N+]=Nc1c(Cl)c(Cl)nc2ccccc12`, the GI50 with HCT-15 was above 100 µM; with 786-0 it was > 100 µM (inactive); with Malme-3M it was > 100 µM (inactive); with LOX IMVI it was 62.1 µM (inactive); with CCRF-CEM, 54.5 µM (inactive); in the assay with NCI/ADR-RES, > 100 µM (inactive). Also, the GI50 with RPMI-8226 is 62.8 µM (inactive); with A549, > 100 µM (inactive); with SK-MEL-5, > 100 µM (inactive); in the assay with SNB-19 it was > 100 µM (inactive); with MDA-N it was > 100 µM (inactive); in the assay on IGROV-1, 77.6 µM (inactive). Besides, the GI50 with NCI-H226 was 66.7 µM (inactive); with COLO 205, > 100 µM (inactive); in the assay with MOLT-4, 32.7 µM (inactive); in the assay on DU-145 it was 72.1 µM (inactive); in the assay with MDA-MB-435 it was > 100 µM (inactive); in the assay on A498 it was 81.5 µM (inactive).
Consider `O=C(CSCC(=O)N/N=C\c1cccc(Br)c1)N/N=C\c1cccc(Br)c1`, for which the GI50 was 21.2 µM in the assay with HCT-15; 19.1 µM (inactive) in the assay on 786-0; 0.182 µM (active) with Malme-3M; 10.8 µM (inactive) with LOX IMVI; 15.9 µM (inactive) in the assay with NCI/ADR-RES; 21.2 µM (inactive) with BT-549. Also, the GI50 with A549 was 14.1 µM (inactive); in the assay on SK-MEL-5, 19.1 µM (inactive); in the assay with U-251, 15.1 µM (inactive); in the assay with SNB-19, 46.5 µM (inactive); with IGROV-1, 17.1 µM (inactive); in the assay with NCI-H226, 15.7 µM (inactive). Moreover, the GI50 in the assay on COLO 205 was 34 µM (inactive); with MOLT-4, 21.3 µM (inactive); with DU-145, 21.8 µM (inactive); with MDA-MB-435 it was 18.5 µM (inactive).
For `Cc1nc(C(N)=S)sc1C(=O)CC(=O)C(=O)Nc1nc2ccccc2[nH]1`, the GI50 was above 100 µM with HCT-15; > 100 µM (inactive) with 786-0; > 100 µM (inactive) with Malme-3M; > 100 µM (inactive) in the assay on LOX IMVI; > 100 µM (inactive) in the assay on NCI/ADR-RES; > 100 µM (inactive) with RPMI-8226. Also, the GI50 is > 100 µM (inactive) in the assay on BT-549; > 100 µM (inactive) in the assay with A549; > 100 µM (inactive) in the assay with SK-MEL-5; > 100 µM (inactive) in the assay with U-251; > 100 µM (inactive) in the assay with IGROV-1; 11.5 µM (inactive) in the assay with NCI-H226. For the same compound, the GI50 in the assay on MOLT-4, in the assay on MDA-MB-435 and in the assay with A498 was > 100 µM (inactive) in each case.
`CC(=O)C1C(=O)C(=O)N(c2ccc([N+](=O)[O-])cc2[N+](=O)[O-])C1=O` (stereo not given): the concentration for 50% growth inhibition (GI50) in the assay with HCT-15 is above 100 µM; with 786-0 it was > 100 µM (inactive); in the assay on LOX IMVI it was > 100 µM (inactive); in the assay on CCRF-CEM it was > 100 µM (inactive); with NCI/ADR-RES it was > 100 µM (inactive); in the assay on BT-549, > 100 µM (inactive). In addition, the GI50 in the assay on A549, with SK-MEL-5, in the assay on U-251, with SNB-19, in the assay with IGROV-1 and in the assay on NCI-H226 was > 100 µM (inactive) in each case. Moreover, the GI50 with COLO 205, in the assay on MOLT-4, with DU-145 and with MDA-MB-435 was > 100 µM (inactive) each time.
